Measurements taken from patent US20120115877A1, “Facially Amphiphilic Compounds, Compositions, And Uses Thereof In Treating Cancer” (POLYMEDIX, INC., priority 2010, published 2012).

How the values were obtained:
Assay type in all cases: cell-based, human
Conditions in all cases: 10 μM
LOX IMVI = test: NCI-60 screen, Melanoma
Experimental: (§1) Several compounds were tested at single concentrations (10 μM) against 59 different human tumor cell lines, representing leukemia, melanoma and cancers of the lung, colon, brain, ovary, breast, prostate, and kidney (see, Table 3). The human tumor cell lines of the cancer screening panel were grown in RPMI 1640 medium containing 5% fetal bovine serum and 2 mM L-glutamine. For a typical screening experiment, cells were inoculated into 96 well microtiter plates in 100 μL at plating densities ranging from 5,000 to 40,000 cells/well depending on the doubling time of individual cell lines. After cell inoculation, the microtiter plates were incubated at 37° C., 5% CO2, 95% air and 100% relative humidity for 24 hours prior to addition of the compounds.
(§2) After 24 hours, two plates of each cell line were fixed in situ with TCA, to represent a measurement of the cell population for each cell line at the time of drug addition (Tz). Compounds were solubilized in dimethyl sulfoxide at 400-fold the desired final maximum test concentration and stored frozen prior to use. At the time of drug addition, an aliquot of frozen concentrate was thawed and diluted to twice the desired final maximum test concentration with complete medium containing 50 μg/ml gentamicin. Additional four, 10-fold or ½ log serial dilutions were made to provide a total of five compound concentrations plus control. Aliquots of 100 μl of these different drug dilutions were added to the appropriate microtiter wells already containing 100 μl of medium, resulting in the required final compound concentrations.
(§3) Following drug addition, the plates were incubated for an additional 48 hours at 37° C., 5% CO2, 95% air, and 100% relative humidity. For adherent cells, the assay was terminated by the addition of cold TCA. Cells were fixed in situ by the gentle addition of 50 μl of cold 50% (w/v) TCA (final concentration, 10% TCA) and incubated for 60 minutes at 4° C. The supernatant was discarded, and the plates were washed five times with tap water and air dried. Sulforhodamine B (SRB) solution (100 μl) at 0.4% (w/v) in 1% acetic acid was added to each well, and plates were incubated for 10 minutes at room temperature. After staining, unbound dye was removed by washing five times with 1% acetic acid and the plates were air dried. Bound stain was subsequently solubilized with 10 mM trizma base, and the absorbance was read on an automated plate reader at a wavelength of 515 nm. For suspension cells, the methodology was the same except that the assay was terminated by fixing settled cells at the bottom of the wells by gently adding 50 μl of 80% TCA (final concentration, 16% TCA). Using the seven absorbance measurements (time zero, (Tz), control growth, (C), and test growth in the presence of drug at the five concentration levels (Ti)), the percentage growth was calculated at each of the compound concentrations levels. Percentage growth inhibition was calculated as:
(§4) [(Ti−Tz)/(C−Tz)]×100 for concentrations for which Ti>/=Tz
(§5) [(Ti−Tz)/Tz]×100 for concentrations for which Ti<Tz.
(§6) Three dose response parameters were calculated for each compound. Growth inhibition of 50% (GI50) was calculated from [(Ti−Tz)/(C−Tz)]×100=50, which is the compound concentration resulting in a 50% reduction in the net protein increase (as measured by SRB staining) in control cells during the compound incubation. The compound concentration resulting in total growth inhibition (TGI) was calculated from Ti=Tz. The LC50 (concentration of compound resulting in a 50% reduction in the measured protein at the end of the compound treatment as compared to that at the beginning) indicating a net loss of cells following treatment was calculated from [(Ti−Tz)/Tz]×100=−50. Values were calculated for each of these three parameters if the level of activity was reached; however, if the effect was not reached or was exceeded, the value for that parameter was expressed as greater or less than the maximum or minimum concentration tested.

MALME-3M = test: NCI-60 screen, Melanoma
Experimental: as §1, §2, §3, §4, §5, §6

MDA-MB-435 = test: NCI-60 screen, Melanoma
Experimental: as §1, §2, §3, §4, §5, §6

SK-MEL-28 = test: NCI-60 screen, Melanoma
Experimental: as §1, §2, §3, §4, §5, §6

SK-MEL-2 = test: NCI-60 screen, Melanoma
Experimental: as §1, §2, §3, §4, §5, §6

SK-MEL-5 = test: NCI-60 screen, Melanoma
Experimental: as §1, §2, §3, §4, §5, §6

UACC-257 = test: NCI-60 screen, Melanoma
Experimental: as §1, §2, §3, §4, §5, §6

UACC-62 = test: NCI-60 screen, Melanoma
Experimental: as §1, §2, §3, §4, §5, §6

IGROV1 = test: NCI-60 screen, Ovarian Cancer
Experimental: as §1, §2, §3, §4, §5, §6

NCI/ADR-RES = test: NCI-60 screen, Ovarian Cancer
Experimental: as §1, §2, §3, §4, §5, §6

OVCAR-3 = test: NCI-60 screen, Ovarian Cancer
Experimental: as §1, §2, §3, §4, §5, §6

OVCAR-4 = test: NCI-60 screen, Ovarian Cancer
Experimental: as §1, §2, §3, §4, §5, §6

OVCAR-5 = test: NCI-60 screen, Ovarian Cancer
Experimental: as §1, §2, §3, §4, §5, §6

OVCAR-8 = test: NCI-60 screen, Ovarian Cancer
Experimental: as §1, §2, §3, §4, §5, §6

SK-OV-3 = test: NCI-60 screen, Ovarian Cancer
Experimental: as §1, §2, §3, §4, §5, §6

A498 = test: NCI-60 screen, Renal Cancer
Experimental: as §1, §2, §3, §4, §5, §6

ACHN = test: NCI-60 screen, Renal Cancer
Experimental: as §1, §2, §3, §4, §5, §6

CAKI-1 = test: NCI-60 screen, Renal Cancer
Experimental: as §1, §2, §3, §4, §5, §6

RXF 393 = test: NCI-60 screen, Renal Cancer
Experimental: as §1, §2, §3, §4, §5, §6

SN12C = test: NCI-60 screen, Renal Cancer
Experimental: as §1, §2, §3, §4, §5, §6

TK-10 = test: NCI-60 screen, Renal Cancer
Experimental: as §1, §2, §3, §4, §5, §6

UO-31 = test: NCI-60 screen, Renal Cancer
Experimental: as §1, §2, §3, §4, §5, §6

BT-549 = test: NCI-60 screen, Breast Cancer
Experimental: as §1, §2, §3, §4, §5, §6

MCF7 = test: NCI-60 screen, Breast Cancer
Experimental: as §1, §2, §3, §4, §5, §6

MDA-MB-468 = test: NCI-60 screen, Breast Cancer
Experimental: as §1, §2, §3, §4, §5, §6

T-47D = test: NCI-60 screen, Breast Cancer
Experimental: as §1, §2, §3, §4, §5, §6

NCCCc1cccc(-c2ccc3sc4ccc(-c5cccc(CCCN)c5)cc4c3c2)c1 [Compound D]
Percent Growth (LOX IMVI): 26.77% | Percent Growth (MALME-3M): 134.1% | Percent Growth (MDA-MB-435): 81.14% | Percent Growth (SK-MEL-28): 99.21% | Percent Growth (SK-MEL-2): 81% | Percent Growth (SK-MEL-5): 100.8% | Percent Growth (UACC-257): 100% | Percent Growth (UACC-62): 88.44% | Percent Growth (IGROV1): 80.28% | Percent Growth (NCI/ADR-RES): 95.39% | Percent Growth (OVCAR-3): 62.71% | Percent Growth (OVCAR-4): 59.85% | Percent Growth (OVCAR-5): 96.93% | Percent Growth (OVCAR-8): 83.89% | Percent Growth (SK-OV-3): 103.1% | Percent Growth (A498): 81.64% | Percent Growth (ACHN): 68.97% | Percent Growth (CAKI-1): 82.82% | Percent Growth (RXF 393): 81.71% | Percent Growth (SN12C): 84.45% | Percent Growth (TK-10): 86.48% | Percent Growth (UO-31): 85.61% | Percent Growth (BT-549): 105.8% | Percent Growth (MCF7): −59.63% | Percent Growth (MDA-MB-468): 17.63% | Percent Growth (T-47D): 90.75%
